Test results taken from patent US10676470B2, “Inhibitors of lysine gingipain” (priority 2014, dated 2020).
“Also recorded” adds a separate entry of the source.

What was measured:
[1] = tested on: differentiated SHSY-5Y cells; test: Gingipain-induced death of differentiated SH-SY5Y cells; format: cell-based; conditions: 100 nM Kgp and/or RgpB for 24 hours
Description: SH-SY5Y neuroblastoma cells were cultured and differentiated in the presence of 5 uM retinoic acid based on established methods [Saberi S., et al. Cell Mol Neurobiol 2013. 33: 747-751]. Differentiation into neuronal cells was verified by observation of neurite outgrowth. The differentiated cells were exposed to 100 nM Kgp and/or RgpB for 24 hours, in the presence or absence of Kgp inhibitors. Results were recorded using a digital microscope camera (FIG. 1C, FIG. 2C). Gingipains are toxic to cells while COR compounds prevent the cytotoxicity.

[2] = target: lysine gingipain (Kgp) (Porphyromonas gingivalis (strain ATCC 33277 / DSM 20709 / CIP 103683 / JCM 12257 / NCTC 11834 / 2561), UniProt B2RLK2); test: Fluorogenic lysine gingipain inhibition assay; format: biochemical; conditions: 0.1 nM Kgp, 10 uM Z-His-Glu-Lys-MCA, 90 minutes, 37° C., pH 7.5
Description: The capacities of compounds of the present invention to inhibit the activity of lysine gingipain were measured in a fluorogenic assay similar to those described in Barret Biochemical Journal. 1980, 187(3), 909. The specific assay conditions were as follows. Buffer: pH=7.5, 100 mM Tris-HCl, 75 mM NaCl, 2.5 mM CaCl2, 10 mM cysteine, 1% DMSO after all additions. Protein: 0.1 nM Kgp, isolated from culture of Porphyromonas gingivalis, as described in Pike et al. J. Biol. Chem. 1994, 269(1), 406, and Potempa and Nguyen. Current Protocols in Protein Scienc. 2007, 21.20.1-21.20.27. Fluorogenic substrate: 10 uM Z-His-Glu-Lys-MCA. Time=90 minutes. Temperature=37° C. Each compound: 10 concentrations, starting at either 100 uM or 100 nM, with lower concentrations generated by serial 3-fold dilutions. By testing a range of concentrations for each compound, the concentration required to inhibit the activity of lysine gingipain by 50% (the “IC50”) was determined. Under the described assay conditions, signal-to-noise was excellent, and Z factor was greater than 0.6.
The inhibitory of activity of compounds described herein was tested against Kgp, RgpB, and trypsin.

[3] = tested on: abeta 42; test: Brain abeta 42 ELISA in mice orally infected with P. gingivalis; format: in vivo; conditions: Balb/cJ mice, oral W83 P. gingivalis for 42 days; compound subcutaneously three times per day on days 21-42
Excerpt: Female Balb/cJ mice were obtained from Taconic and allowed to acclimate. 43-44 week old mice were challenged orally with 10^9 CFU W83 P. gingivalis or a P. gingivalis strain lacking expression of Kgp every other day for 42 days. Compound 2 or vehicle (2% DMSO) was given subcutaneously three times per day on days 21-42. On day 42 mice were sacrificed and the brain removed and frozen. A sample including hippocampal tissue was lysed in RIPA buffer with protease inhibitors and analyzed for Abeta42 expression with the Amyloid beta 42 ELISA Kit, Mouse (Life Technologies).

[4] = tested on: SHSY5Y cells; test: P. gingivalis-induced toxicity in SHSY5Y cells; format: cell-based; conditions: SHSY5Y cells in vitro, compared to the antibiotic moxifloxacin

SMILES | prevention of gingipain-induced cell death [1] | other results
NCCCC[C@H](NC(=O)[C@H]1CCCN(C(=O)CCc2ccccc2)C1)C(=O)c1nc2ccccc2s1 [Compound 3, (3S)—N-[(1S)-5-amino-1-(1,3-benzothiazole-2-carbonyl)pentyl]-1-(3-phenylpropanoyl)piperidine-3-carboxamide] | does not | 
NCCCC[C@H](NC(=O)[C@@H]1CCCN(C(=O)CCc2ccccc2)C1)C(=O)c1nc2ccccc2s1 [Compound 4, (3R)—N-[(1S)-5-amino-1-(1,3-benzothiazole-2-carbonyl)pentyl]-1-(3-phenylpropanoyl)piperidine-3-carboxamide] | prevents gingipain-induced death | prevention of gingipain-induced cell death ([1]; listed as 2-(N—[N-(3-phenylpropanoyl)-(R)-nipecotinyl]-(R)-lysinyl)-benzothiazole): effective at preventing cell death; IC50 [2]: 1 to 10 nM
NCCCC[C@H](NC(=O)C1CCCCC1)C(=O)c1nc2ccccc2s1 [Compound 2, N-[(1S)-5-amino-1-(1,3-benzothiazole-2-carbonyl)pentyl]cyclohexanecarboxamide] | prevents gingipain-induced death; also recorded: more effective; also recorded: effective at preventing cell death | brain levels of abeta 42 (ELISA) [3]: resolved; also recorded: increase in abeta42 that was not apparently
NCCCC[C@H](NC(=O)C1CCCC1)C(=O)COc1c(F)c(F)cc(F)c1F [Compound 43, N-[(1S)-5-amino-1-[2-(2,3,5,6-tetrafluorophenoxy)acetyl]pentyl]cyclopentanecarboxamide] |  | protection from P. gingivalis-induced toxicity [4]: protects SHSY5Y cells from P. gingivalis-induced toxicity
NCCCC[C@H](NC(=O)c1ccccc1)C(=O)c1nc2ccccc2s1 [Compound 1, N-[(1S)-5-amino-1-(1,3-benzothiazole-2-carbonyl)pentyl]benzamide] | prevents gingipain-induced death; also recorded: effective at preventing cell death | 
